One data set has as its system monoclonal antibody SP31. To be noted: peptide analog of substance P comprising an alanine at position 10 [Ala^10]; cited from earlier work.
The target of another data set is T1, neutravidin (Gallus gallus, UniProt P02701).
T1 construct: purchased Pierce 31 000
The experiment in a line: Attachment of the fluorescein-labeled tripod Y to neutravidin-coated microtitration plates (fluorescence). In kind it is binding. As to conditions: neutravidin-coated microplate, 3 hours at ambient temperature, excitation 485 nm / emission 530 nm. As to the method: 100 μl of a solution of neutravidin (sold under the reference 31 000 by the company Pierce) at 5 μg/ml in a 0.1 M potassium phosphate buffer, pH 7.4 are deposited into the wells of black microplates sold under the name High Bind Matrix by the company VWR (reference 80120696). After 16 hours at ambient temperature, the plates are washed with washing buffer and then saturated by depositing 300 μl/well of saturation buffer for 16 hours at ambient temperature. The plates are stored with the same buffer (300 μl/well) at 4° C.
A dilution range for the tripod Y (labeled with fluorescein) synthesized above in example 4, in 0.1 M potassium phosphate buffer, pH 7.4, is prepared by producing a first point of the range at a concentration of 0.5 μM, and then 4 successive ⅓ dilutions (i.e. 0.167 μM; 0.055 μM; 0.0185 μM and 6.2×10^−3 μM). […] The plate is read with an analyst AD system fluorimeter (LJL Biosystem) for reading microplates, at an excitation wavelength of 485 nm and at an emission wavelength of 530 nm, which are the excitation and emission wavelengths corresponding to fluorescein.
The curves obtained with neutravidin (black square) and without neutravidin (black triangle: control) are represented in the attached FIG. 2, in which the fluorescence (in arbitrary units) is expressed as a function of the concentration of tripod Y in accordance with the invention (μM).

The source of these data is patent US20060160086A1, “Method for continuous detection of an analyte, trifunctional detecting reagent used and detecting device” (Commissariat A L'Energie Atomique, priority 2002, published 2006).

Ends that are not written are not given here. * marks the point of attachment. Biotin = O=C1N[C@H]2[C@H](CS[C@H]2CCCCC(=O)*)N1

T1 sequence (P02701 25-152): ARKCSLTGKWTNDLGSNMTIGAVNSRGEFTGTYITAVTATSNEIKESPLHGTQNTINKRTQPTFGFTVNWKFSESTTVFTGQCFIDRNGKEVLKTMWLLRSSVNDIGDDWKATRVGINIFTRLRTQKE

Turning to “KSSK(Biotin)RPAPQQFFGAM-NH2 [substance P analog]”, in the data set on monoclonal antibody SP31, the “cross reactivity with substance P for the monoclonal antibody SP31” value is recorded as 13%.

Regarding “tripod: substance P analog (SEQ ID No. 2) labeled with fluorescein; biotin for attachment to neutravidin support (GATCTGCTGGCATCT; fluorescein label and biotin, positions not given here)”, the “concentration of tripod up to which fluorescence increases proportionally, then plateau (saturation of the neutravidin binding sites)” value with neutravidin came to 0.17 µM.
